Laboratory results as given in paper PMC8753592, “Long-acting capsid inhibitor protects macaques from repeat SHIV challenges” (Nature, 2021).
Where “and” joins values, the source holds several entries; their conditions need not be identical. Equal entries are not always repeated. Where two headings read alike, the source gives them in different places.

What was measured:
[1] = target: CA precursor (Gag polyprotein); conditions: ref Yant et al, Nat.Med, 2019;[4]; read-out: Binding Affinity (KD), CA precursor (Gag polyprotein); cited from earlier work
in vitro = conditions: rhesus
Protocol: After a 24-h equilibration period at 37 °C, samples were quenched with 4 volumes of 90% (vol/vol) acetonitrile and 10% (vol/vol) methanol containing internal standard. Then, they were quantified using the AB Sciex API 4000 LC–MS/MS system (GenTech Scientific) with electrospray ionization in positive mode and multiple-reaction monitoring and were analysed using Analyst 1.6.1 software. The fold change value in 100% rhesus plasma was then calculated using the plasma/CCM ratio after correcting for the sample dilution factor and the percentage of free fraction in the matrix.

SHIV-SF162P3 = experiment: microbe, parasite or virus in culture; format: cell-based, SHIV (in rhesus macaque, Macaca mulatta, PBMCs); conditions: for % Virus Production, replicates n1–n3: experiments 1–7; for % Virus Production, MEAN: per experiment 1–7
Protocol: Freshly isolated PBMCs from three male rhesus macaque (M. mulatta) donors of Indian origin (HumanCells Biosciences) were cultured in RPMI-1640 cell culture medium (Life Technologies) supplemented with 10% heat-inactivated FBS (Hyclone), 2 mM glutamine and 100 U ml^−1 penicillin plus 100 μg ml^−1 streptomycin (complete RPMI). Before their use in the antiviral assays, rhesus PBMCs from three independent donors were pooled and activated at a density of 3 × 10^6 cells per ml for 72 h at 37 °C by the addition of 1 μg ml^–1 phytohemagglutinin (PHA, Sigma-Aldrich) and 50 U ml^−1 recombinant human interleukin-2 (IL-2) (Roche Diagnostics).
PHA/IL-2-stimulated rhesus PBMCs were infected in bulk culture with SHIV-SF162P3 at a concentration of 130 pg of p27 equivalent per million PBMCs. The cells were maintained in suspension by gently rocking the cultures mixed with virus inoculum for 3 h at 37 °C. The cells were then pelleted by centrifugation at 500g for 5 min, washed twice with complete RPMI to remove any unadsorbed virus and seeded into 96-well plates at a cell density of 2 × 10^5 cells per well in 100 μl. […] The cultures were incubated in a 5% CO2 incubator at 37 °C for 7 days. Cell-free supernatants derived from the PBMC cultures were harvested 7 days after infection, the amount of SHIV present was quantified using an SIV p27 antigen-capture ELISA assay (5436, Advanced Bioscience Laboratories) performed according to the manufacturer’s protocol, and the data were acquired using SoftMax Pro 6.3.1 software (Molecular Devices).

[2] = Plasma GS-CA1 pharmacokinetics in the repeat SHIV challenge study; format: in vivo, rhesus macaques of Indian origin
Protocol: For the challenge study, 24 outbred rhesus macaques of Indian origin were assigned to the three study groups with even sex and weight distributions. All animals were housed at Alpha Genesis (Yemassee, SC), and all procedures were conducted in compliance with all relevant local, state and federal regulations and were approved by the Alpha Genesis IACUC. […] The injection sites were monitored daily by veterinary staff for 3 days. Beginning in week 1, animals in all three groups were challenged by the intrarectal route with 1 ml of RPMI containing the specified dilution of a 3.62 × 10^3 TCID50 SHIV-SF162P3 stock. At each respective time point, the challenges were performed on the same day, using the same virus stock and inoculation method across the three groups. Whole blood was collected and processed into plasma and PBMCs as necessary to assess routine haematology, clinical chemistry, viral load and serology as well as for bioanalysis of drug levels. The animals were considered to be protected if they remained SHIV negative by plasma PCR assay and seronegative by enzyme immunoassay throughout the 15-week challenge phase and the 9-week follow-up.
Rhesus plasma samples were stored frozen at −80 °C.

[3] = both sexes, Indian origin, rhesus monkey, in vivo, sc, 150 mg/kg, 150 mg/kg single s.c., n=8, mean ± SD
[4] = both sexes, Indian origin, rhesus monkey, in vivo, sc, 300 mg/kg, 300 mg/kg single s.c., n=8, mean ± SD
[5] = both sexes, Indian origin, rhesus monkey, in vivo, sc, 150 mg/kg single s.c., n=8, mean ± SD
[6] = both sexes, Indian origin, rhesus monkey, in vivo, sc, 300 mg/kg single s.c., n=8, mean ± SD

## CC(C)(C#Cc1ccc(-c2ccc(Cl)c3c(NS(=O)(=O)C4CC4)nn(CC(F)F)c23)c([C@H](Cc2cc(F)cc(F)c2)NC(=O)Cn2nc(C(F)F)c3c2C(F)(F)[C@@H]2C[C@H]32)n1)S(C)(=O)=O [GS-CA1]
[1]
  Kd: 2.4 nM
In vitro
  recovery at 24 h, 2 μM: 60%
SHIV-SF162P3; 0.011 nM
  % Virus Production, replicates n1–n3: 122% and 104% and 99% and 93% and 127% and 160% and 82% and 121% and 88% and 87% and 68%
  % Virus Production, MEAN: 108% and 126% and 97% and 83% and 121% and 68%
SHIV-SF162P3; 0.034 nM
  % Virus Production, replicates n1–n3: 106% and 78% and 72% and 136% and 114% and 75% and 116% and 105% and 181% and 64% and 89% and 82% and 53% and 93%
SHIV-SF162P3; 0.103 nM
  % Virus Production, replicates n1–n3: 127% and 124% and 79% and 73% and 103% and 118% and 130% and 152% and 105% and 82% and 99% and 121% and 76% and 71%
  % Virus Production, MEAN: 110% and 85% and 133% and 95% and 89% and 99% and 67%
SHIV-SF162P3; 0.309 nM
  % Virus Production, replicates n1–n3: 75% and 74% and 102% and 149% and 120% and 72% and 78% and 94% and 103% and 109% and 66%
SHIV-SF162P3; 0.926 nM
  % Virus Production, replicates n1–n3: 65% and 37% and 36% and 39% and 31% and 20% and 16% and 18% and 23% and 70% and 14% and 22%
SHIV-SF162P3; 2.778 nM
  % Virus Production, replicates n1–n3: 0.408% and 2% and 2.34% and 1.77% and 1.55% and 0.489% and 2.2% and 1.37% and 0.76% and 0.799%
  % Virus Production, MEAN: 1.61% and 1.79% and 1.35% and 1.16% and 2.6% and 1.28% and 0.0528%
SHIV-SF162P3; 8.333 nM
  % Virus Production, replicates n1–n3: 1.76% and 1% and 0.517% and 0.425% and 0.705% and 0.145% and 0.0164% and 0.262% and 1.4% and 0.22% and 0.682% and 0.142%
  % Virus Production, MEAN: 1.08% and 0.425% and 0.559% and 0.348% and 1.87% and 0.078% and 0.398%
SHIV-SF162P3; 25.000 nM
  % Virus Production, replicates n1–n3: -0.0465% and -0.0193% and 0.798% and -0.276% and 0.164% and 0.276% and 1% and 0.434% and -0.106% and 0.12% and 0.292% and 0.064% and 0.0863%
  % Virus Production, MEAN: 0.244% and 0.0545% and 0.436% and 0.159% and -0.387% and 0.675% and 0.293%
SHIV-SF162P3; EC95 × rhesus plasma shift
  Rhesus PBMC paEC95: 30.2 nM and 30.2 ± 2.5 nM and 30 nM
SHIV-SF162P3; Simian immunodeficiency virus, PBMC, in Macaca mulatta, 168 h, read-out: EC50, rhesus PBMCs, SHIV-SF162P3, mean of 7 assays, SIV p27 ELISA day 7 post-infection
  EC50: 0.72 nM
SHIV-SF162P3; Simian immunodeficiency virus, PBMC, in Macaca mulatta, 168 h, read-out: SHIV162P3-rhPBMC-EC50, individual experiments, single experiments n1–n7, SIV p27 ELISA day 7
  EC50: 0.66 nM
SHIV-SF162P3; calculated from SHIV EC50 and Hill slope: EC50 × (95/5)^1/n
  Rhesus PBMC EC95: 1.91 nM and 1.91 ± 0.16 nM and 1.9 nM
SHIV-SF162P3; read-out: SHIV162P3-rhPBMC-EC50, individual experiments, single experiments n1–n7, SIV p27 ELISA day 7
  EC50: 0.71 nM and 0.777 nM and 0.868 nM and 0.535 nM and 0.74 nM (2×) and 0.661 nM and 0.78 nM and 0.714 nM and 0.87 nM and 0.54 nM
[2]; 150 mg/kg single s.c.
  time above the rhesus paEC95: 8–15 weeks
  time six times above the rhesus paEC95: 3–7 weeks
[2]; 150 mg/kg single s.c., n=8, mean ± SD
  Cmax: 3.02 ± 1.07 µM
[2]; 150 mg/kg single s.c., Week 1, individual animals
  Plasma GS-CA1: 899.55 nM
[2]; 150 mg/kg single s.c., Week 2, individual animals
  Plasma GS-CA1: 1188.65 nM
[2]; 150 mg/kg single s.c., Week 3, individual animals
  Plasma GS-CA1: 497.91 nM
[2]; 150 mg/kg single s.c., Week 4, individual animals
  Plasma GS-CA1: 153.01 nM
[2]; 150 mg/kg single s.c., Week 5, individual animals
  Plasma GS-CA1: 181.45 nM
[2]; 150 mg/kg single s.c., Week 6, individual animals
  Plasma GS-CA1: 238.73 nM
[2]; 150 mg/kg single s.c., Week 7, individual animals
  Plasma GS-CA1: 104 nM
[2]; 150 mg/kg single s.c., Week 8, individual animals
  Plasma GS-CA1: 126.07 nM
[2]; 150 mg/kg single s.c., Week 9, individual animals
  Plasma GS-CA1: 74.21 nM and 60.58 nM
[2]; 150 mg/kg single s.c., Week 10, individual animals
  Plasma GS-CA1: 50.06 nM and 64.16 nM
[2]; 150 mg/kg single s.c., Week 11, individual animals
  Plasma GS-CA1: 28.74 nM and 29.18 nM
[2]; 150 mg/kg single s.c., Week 12, individual animals
  Plasma GS-CA1: 46.73 nM and 64.14 nM
[2]; 150 mg/kg single s.c., Week 13, individual animals
  Plasma GS-CA1: 44.36 nM
[2]; 150 mg/kg single s.c., Week 14, individual animals
  Plasma GS-CA1: 34.07 nM
[2]; 150 mg/kg single s.c., Week 15, individual animals
  Plasma GS-CA1: 17.38 nM
[2]; 150 mg/kg single s.c., Week 16, individual animals
  Plasma GS-CA1: 12.74 nM
[2]; 150 mg/kg single s.c., Week 17, individual animals
  Plasma GS-CA1: 16.54 nM
[2]; 150 mg/kg single s.c., Week 18, individual animals
  Plasma GS-CA1: 11.37 nM
[2]; 150 mg/kg single s.c., Week 19, individual animals
  Plasma GS-CA1: 19.32 nM
[2]; 150 mg/kg single s.c., Week 20, individual animals
  Plasma GS-CA1: 17.47 nM
[2]; 150 mg/kg single s.c., Week 21, individual animals
  Plasma GS-CA1: 4.49 nM
[2]; 150 mg/kg single s.c., Week 22, individual animals
  Plasma GS-CA1: 3.38 nM
[2]; 150 mg/kg single s.c., Week 23, individual animals
  Plasma GS-CA1: 2.14 nM
[2]; 150 mg/kg single s.c., Week 24, individual animals
  Plasma GS-CA1: 4.67 nM
[2]; 300 mg/kg single s.c.
  time above the rhesus paEC95: 14–16 weeks
  time six times above the rhesus paEC95: 5–8 weeks
[2]; 300 mg/kg single s.c., n=8, mean ± SD
  Cmax: 5.53 ± 1.47 µM
[2]; both sexes, Indian origin (outbred), rhesus monkey, in vivo, 300 mg/kg, Plasma GS-CA1, GS-CA1 300mg/kg, Week 12, individual animals
  concentration at 12 week: 83.4 nM
[2]; both sexes, Indian origin (outbred), rhesus monkey, in vivo, 300 mg/kg, Plasma GS-CA1, GS-CA1 300mg/kg, Week 15, individual animals
  concentration at 15 week: 45.4 nM
[2]; both sexes, Indian origin, outbred, rhesus monkey, in vivo, 300 mg/kg, Plasma GS-CA1, 300 mg/kg single s.c., Week 12, individual animals
  concentration at 12 weeks: 83.4 nM
[2]; both sexes, Indian origin, outbred, rhesus monkey, in vivo, 300 mg/kg, Plasma GS-CA1, 300 mg/kg single s.c., Week 15, individual animals
  concentration at 15 weeks: 45.4 nM
[2]; [3]
  Cmax: 3 µM
  Tmax: ~24 h
[2]; [4]
  Cmax: 5.5 µM
  Tmax: ~42 h
[2]; [5]
  AUC(0-inf): 960 ± 435 µM·h
  AUC(0-t): 959 ± 435 µM·h
[2]; both sexes, Indian origin, rhesus monkey, in vivo, sc, 150 mg/kg single s.c., n=8, mean ± SD, read-out: t1/2 (converted)
  half-life: 13.2 ± 5.5 days
[2]; [6]
  AUC(0-inf): 2040 ± 722 µM·h
  AUC(0-t): 2040 ± 722 µM·h
[2]; both sexes, Indian origin, rhesus monkey, in vivo, sc, 300 mg/kg single s.c., n=8, mean ± SD, read-out: t1/2 (converted)
  half-life: 12 ± 1.88 days
[2]; both sexes, Indian origin, rhesus monkey, in vivo, range over the 150 and 300 mg/kg groups, read-out: mean half-life
  half-life: 12 to 13.2 days
